In ChEMBL document CHEMBL4422622, “Identification of Mineralocorticoid Receptor Modulators with Low Impact on Electrolyte Homeostasis but Maintained Organ Protection” (J Med Chem, 2019):
≈ marks a conversion by molar mass, not a printed value.

What was measured:
[1] = Octanol-water partitioning co-efficient, log D of the compound at pH 7.4 by LC/MS/MS analysis; type: physicochemical
Progesterone receptor = molecular target: T1, Progesterone receptor (Homo sapiens, UniProt P06401); assay: Binding affinity to recombinant human progesterone receptor LBD by fluormone PL red-fluorescence polarization assay
T1 sequence (P06401 whole entry): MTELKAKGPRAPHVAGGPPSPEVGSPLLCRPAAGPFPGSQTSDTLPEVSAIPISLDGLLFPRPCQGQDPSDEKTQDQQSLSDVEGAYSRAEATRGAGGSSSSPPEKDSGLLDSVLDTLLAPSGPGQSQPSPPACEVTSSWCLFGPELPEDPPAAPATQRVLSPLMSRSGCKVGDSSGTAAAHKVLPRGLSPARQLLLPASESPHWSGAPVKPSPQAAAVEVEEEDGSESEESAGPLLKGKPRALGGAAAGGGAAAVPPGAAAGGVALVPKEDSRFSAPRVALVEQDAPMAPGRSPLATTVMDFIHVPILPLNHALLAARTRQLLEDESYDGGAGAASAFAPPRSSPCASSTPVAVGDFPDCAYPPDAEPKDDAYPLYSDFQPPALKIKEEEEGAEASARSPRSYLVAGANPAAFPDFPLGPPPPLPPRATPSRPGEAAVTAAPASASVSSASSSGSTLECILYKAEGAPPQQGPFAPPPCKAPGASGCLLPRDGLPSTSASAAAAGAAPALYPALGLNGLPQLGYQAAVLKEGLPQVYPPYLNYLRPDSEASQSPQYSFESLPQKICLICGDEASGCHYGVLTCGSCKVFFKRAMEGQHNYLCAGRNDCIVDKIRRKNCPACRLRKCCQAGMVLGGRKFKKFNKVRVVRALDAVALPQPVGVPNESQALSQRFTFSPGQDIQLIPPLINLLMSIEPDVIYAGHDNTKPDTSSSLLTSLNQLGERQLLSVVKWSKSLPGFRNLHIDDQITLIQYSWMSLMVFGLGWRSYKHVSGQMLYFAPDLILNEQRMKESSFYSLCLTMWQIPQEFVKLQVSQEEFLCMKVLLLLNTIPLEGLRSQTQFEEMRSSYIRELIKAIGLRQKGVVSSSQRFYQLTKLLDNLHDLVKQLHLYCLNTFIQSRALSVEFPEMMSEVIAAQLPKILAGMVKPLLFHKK

[2] = Intrinsic clearance in human liver microsomes at 1 uM measured up to 30 mins in presence of NADPH by LC-MS/MS analysis; type: ADME, Microsome; settings: read-out: CLH
[3] = molecular target: T2, Mineralocorticoid receptor (Homo sapiens, UniProt P08235)
T2 sequence (P08235 whole entry): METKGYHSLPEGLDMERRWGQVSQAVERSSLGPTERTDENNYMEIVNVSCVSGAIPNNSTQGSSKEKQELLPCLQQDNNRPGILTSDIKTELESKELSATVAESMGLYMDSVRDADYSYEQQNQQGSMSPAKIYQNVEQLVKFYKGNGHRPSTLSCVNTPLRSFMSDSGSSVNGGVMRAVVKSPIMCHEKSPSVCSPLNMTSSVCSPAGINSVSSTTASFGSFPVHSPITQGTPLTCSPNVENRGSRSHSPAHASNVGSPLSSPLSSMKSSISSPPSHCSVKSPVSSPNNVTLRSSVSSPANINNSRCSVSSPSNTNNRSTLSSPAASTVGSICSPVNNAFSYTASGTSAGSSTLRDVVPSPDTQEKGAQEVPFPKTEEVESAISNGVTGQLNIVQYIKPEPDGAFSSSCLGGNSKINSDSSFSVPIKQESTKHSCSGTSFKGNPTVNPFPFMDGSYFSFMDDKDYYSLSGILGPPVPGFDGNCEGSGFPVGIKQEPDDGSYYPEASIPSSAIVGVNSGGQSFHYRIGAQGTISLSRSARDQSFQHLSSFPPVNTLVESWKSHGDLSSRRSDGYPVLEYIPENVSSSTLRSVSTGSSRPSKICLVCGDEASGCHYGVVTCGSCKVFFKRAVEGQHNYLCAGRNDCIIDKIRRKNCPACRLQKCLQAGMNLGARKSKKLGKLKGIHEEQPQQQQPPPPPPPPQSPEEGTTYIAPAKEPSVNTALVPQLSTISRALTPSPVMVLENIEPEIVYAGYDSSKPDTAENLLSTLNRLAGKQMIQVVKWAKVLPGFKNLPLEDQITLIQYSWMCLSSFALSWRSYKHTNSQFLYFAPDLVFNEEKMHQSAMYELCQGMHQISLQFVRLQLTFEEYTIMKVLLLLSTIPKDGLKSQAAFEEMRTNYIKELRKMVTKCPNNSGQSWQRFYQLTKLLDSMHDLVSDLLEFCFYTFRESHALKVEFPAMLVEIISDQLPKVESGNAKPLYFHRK
Description: Antagonist activity at gal4-fused human mineralocorticoid receptor LBD expressed in UAS-MR-bla HEK293 cells by luciferase reporter gene assay

[4] = Kinetic solubility of compound at pH 7.4 after 24 hrs by shake-flask assay; type: physicochemical; settings: buffer, read-out: -log(solubility) (converted)
Glucocorticoid receptor = molecular target: T3, Glucocorticoid receptor (Homo sapiens, UniProt P04150)
T3 sequence (P04150 whole entry): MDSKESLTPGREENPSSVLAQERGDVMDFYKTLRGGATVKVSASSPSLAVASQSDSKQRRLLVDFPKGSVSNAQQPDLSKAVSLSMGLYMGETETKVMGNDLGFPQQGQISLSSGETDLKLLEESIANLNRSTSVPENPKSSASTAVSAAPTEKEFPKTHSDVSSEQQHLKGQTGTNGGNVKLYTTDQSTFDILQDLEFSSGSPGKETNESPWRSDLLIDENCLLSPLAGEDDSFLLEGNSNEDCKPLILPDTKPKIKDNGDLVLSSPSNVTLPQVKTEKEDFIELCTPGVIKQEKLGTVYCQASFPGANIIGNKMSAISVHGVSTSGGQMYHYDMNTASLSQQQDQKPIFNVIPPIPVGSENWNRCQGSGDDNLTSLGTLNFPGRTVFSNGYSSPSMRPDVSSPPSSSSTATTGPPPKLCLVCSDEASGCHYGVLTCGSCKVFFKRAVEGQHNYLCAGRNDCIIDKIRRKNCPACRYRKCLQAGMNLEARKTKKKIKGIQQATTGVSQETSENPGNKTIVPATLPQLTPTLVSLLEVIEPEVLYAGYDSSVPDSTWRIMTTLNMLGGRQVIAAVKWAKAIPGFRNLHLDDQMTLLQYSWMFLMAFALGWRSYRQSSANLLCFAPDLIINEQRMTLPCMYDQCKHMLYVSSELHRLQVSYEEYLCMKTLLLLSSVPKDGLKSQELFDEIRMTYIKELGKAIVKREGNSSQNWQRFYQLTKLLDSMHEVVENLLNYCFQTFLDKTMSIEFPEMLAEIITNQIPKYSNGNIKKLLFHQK
Description: Binding affinity to recombinant human GR LBD by fluormone GS red-fluorescence polarization assay

[5] = molecular target: T2, Mineralocorticoid receptor; remark: listed apart in the source
Description: Displacement of [3H]-aldosterone to human mineralocorticoid receptor LBD by radiometric binding assay

[6] = Apparent permeability in human Caco2 cells at 10 uM after 45 to 120 mins by LC/MS/MS analysis; type: ADME, cell-based; settings: Caco-2
[7] = Intrinsic clearance in human hepatocytes assessed per million cells at 1 uM measured up to 120 mins in presence of NADPH by LC-MS/MS analysis; type: ADME, cell-based, Hepatocyte; settings: read-out: CLH

Compound: C[C@@H]1COc2cc(F)ccc2N1C(=O)c1ccc2c(c1)NC(=O)CO2
- logD [1]: 2.7
- Ki (Progesterone receptor): > 50100 nM
- microsomal CLint at 1 µM [2]: 11 µL/min/mg

Compound: CC(C)C[C@H]1COc2cc(F)ccc2N1C(=O)c1ccc2c(c1)NC(=O)CC2
- IC50 [3]: 2510 nM
- logD [1]: 3.6
- solubility kinetic at 24 h [4]: 79.4 µM (≈ 30.4 µg/mL)
- Ki (Glucocorticoid receptor): 12600 nM
- Ki (Progesterone receptor): > 50100 nM
- Ki [5]: 1000 nM
- microsomal CLint at 1 µM [2]: > 300 µL/min/mg

Compound: C[C@H]1COc2cccnc2N1C(=O)c1ccc2c(c1)NC(=O)CO2
- IC50 [3]: > 10000 nM
- logD [1]: 1.3
- solubility kinetic at 24 h [4]: 1000 µM (≈ 325 µg/mL)
- Ki (Glucocorticoid receptor): > 15800 nM
- Ki (Progesterone receptor): > 50100 nM
- Ki [5]: 1260 nM
- microsomal CLint at 1 µM [2]: 6 µL/min/mg

Compound: O=C1COc2ccc(C(=O)N3c4ccc(F)cc4OC[C@@H]3CCO)cc2N1
- IC50 [3]: 501 nM
- logD [1]: 1.8
- solubility kinetic at 24 h [4]: 1000 µM (≈ 372 µg/mL)
- Ki (Glucocorticoid receptor): 1260 nM
- Ki (Progesterone receptor): 25100 nM
- Ki [5]: 200 nM
- microsomal CLint at 1 µM [2]: 15 µL/min/mg

Compound: N#CC[C@H]1COc2ccccc2N1C(=O)c1ccc2c(c1)NC(=O)CO2
- IC50 [3]: 3980 nM
- logD [1]: 1.5
- solubility kinetic at 24 h [4]: 794 µM (≈ 277 µg/mL)
- Ki [5]: 501 nM
- microsomal CLint at 1 µM [2]: 34 µL/min/mg

Compound: O=C1COc2ccc(C(=O)N3c4ccc(Cl)cc4C[C@@H]3CCO)cc2N1
- IC50 [3]: > 10000 nM
- logD [1]: 3.7
- solubility kinetic at 24 h [4]: 2 µM (≈ 0.744 µg/mL)
- Ki (Glucocorticoid receptor): > 15800 nM
- Ki (Progesterone receptor): > 50100 nM
- Ki [5]: > 10000 nM
- microsomal CLint at 1 µM [2]: 40 µL/min/mg

Compound: CC(C)C[C@H]1COc2cc(F)ccc2N1C(=O)c1ccc2c(c1)NC(=O)CO2
- IC50 [3]: 63.1 nM
- logD [1]: 3.8
- solubility kinetic at 24 h [4]: 39.8 µM (≈ 15.3 µg/mL)
- Ki (Glucocorticoid receptor): 50.1 nM
- Ki (Progesterone receptor): 2510 nM
- Ki [5]: 2 nM
- microsomal CLint at 1 µM [2]: > 300 µL/min/mg

Compound: O=C1COc2ccc(C(=O)N3CCOc4ccccc43)cc2N1
- IC50 [3]: 3160 nM
- logD [1]: 2
- solubility kinetic at 24 h [4]: 15.8 µM (≈ 4.92 µg/mL)
- Ki [5]: 1000 nM
- microsomal CLint at 1 µM [2]: 4 µL/min/mg

Compound: O=C(O)C[C@H]1COc2cc(Cl)ccc2N1C(=O)c1ccc2c(c1)NC(=O)CO2
- IC50 [3]: > 10000 nM
- logD [1]: -0.5
- solubility kinetic at 24 h [4]: 1000 µM (≈ 403 µg/mL)
- Ki (Glucocorticoid receptor): 5010 nM
- Ki (Progesterone receptor): > 50100 nM
- Ki [5]: 158 nM
- microsomal CLint at 1 µM [2]: < 3 µL/min/mg

Compound: C[C@@H]1CCc2cc(F)ccc2N1C(=O)c1ccc2c(c1)NC(=O)CO2
- IC50 [3]: > 10000 nM
- logD [1]: 2.9
- solubility kinetic at 24 h [4]: 100 µM (≈ 34 µg/mL)
- Ki [5]: 6310 nM
- microsomal CLint at 1 µM [2]: 70 µL/min/mg

Compound: COC(=O)C[C@H]1COc2cc(F)ccc2N1C(=O)c1ccc2c(c1)NC(=O)CO2
- IC50 [3]: 316 nM
- logD [1]: 2.2
- solubility kinetic at 24 h [4]: 398 µM (≈ 159 µg/mL)
- Ki [5]: 63.1 nM
- microsomal CLint at 1 µM [2]: > 300 µL/min/mg

Compound: O=C1COc2ccc(C(=O)N3CCCc4ccccc43)cc2N1
- IC50 [3]: 2000 nM
- logD [1]: 2.4
- solubility kinetic at 24 h [4]: 50.1 µM (≈ 15.5 µg/mL)
- Ki [5]: 631 nM
- microsomal CLint at 1 µM [2]: 27 µL/min/mg

Compound: NCC[C@H]1COc2cc(F)ccc2N1C(=O)c1ccc2c(c1)NC(=O)CO2
- IC50 [3]: > 10000 nM
- logD [1]: 0.2
- solubility kinetic at 24 h [4]: 50.1 µM (≈ 18.6 µg/mL)
- Ki (Glucocorticoid receptor): > 15800 nM
- Ki (Progesterone receptor): > 50100 nM
- Ki [5]: > 10000 nM
- microsomal CLint at 1 µM [2]: 12 µL/min/mg

Compound: CNC(=O)C[C@H]1CCc2cc(F)ccc2N1C(=O)c1ccc2c(c1)NC(=O)CO2
- IC50 [3]: 2000 nM
- logD [1]: 1.4
- Papp at 10 µM [6]: 6.3 ×10⁻⁶ cm/s
- Ki (Glucocorticoid receptor): 6310 nM
- Ki [5]: 316 nM
- hepatocyte CLint at 1 µM [7]: < 1.8 µL/min/1e6 cells

Compound: Cc1ccc(C2CCCCN2S(=O)(=O)c2ccc3c(c2)NC(=O)CO3)cc1 (racemic)
- IC50 [3]: 6310 nM
- logD [1]: 3.3
- solubility kinetic at 24 h [4]: < 0.794 µM
- microsomal CLint at 1 µM [2]: 120 µL/min/mg

Compound: CC1CCc2ccccc2N1S(=O)(=O)c1ccc2c(c1)NC(=O)CO2 (racemic)
- IC50 [3]: 5010 nM
- logD [1]: 3.3
- solubility kinetic at 24 h [4]: 20 µM (≈ 7.15 µg/mL)
- Ki [5]: 2000 nM
- microsomal CLint at 1 µM [2]: > 300 µL/min/mg

Compound: CC1CCc2ccccc2N1C(=O)c1ccc2c(c1)NC(=O)CO2 (racemic)
- IC50 [3]: 1580 nM
- logD [1]: 2.7
- solubility kinetic at 24 h [4]: 50.1 µM (≈ 16.2 µg/mL)
- Ki [5]: 794 nM
- microsomal CLint at 1 µM [2]: 128 µL/min/mg

Compound: CCNC(=O)CC1COc2cc(F)ccc2N1C(=O)c1ccc2c(c1)NC(=O)CO2 (racemic)
- IC50 [3]: > 10000 nM
- logD [1]: 1.6
- Papp at 10 µM [6]: 10 ×10⁻⁶ cm/s
- Ki (Glucocorticoid receptor): > 15800 nM
- Ki [5]: > 10000 nM
- hepatocyte CLint at 1 µM [7]: 3 µL/min/1e6 cells
